In PubChem BioAssay AID330 (DTP/NCI, 2004) one finds T/C data, which are given here for 20 compounds.

Structures are written as SMILES. “And” between values parts separate entries of the source, which are not always exact repeats. Equal values may be shown once. Toxic doses and inconclusive results are not listed. Square brackets hold non-standard residues; d marks the D form. Peptide text beside a SMILES is read from it. Hpg = N[CH](C(=O)O)c1ccc(O)cc1

In the assay the test system is P388 leukemia ip, CD2F1 mice, survival T/C. As to the kind of experiment: NCI In Vivo Anticancer Drug Screen. Data for tumor model P388 Leukemia (intraperitoneal) in CD2F1 (CDF1) mice. To be noted: endpoint: median survival time, higher = longer survival. The method in brief:
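Mice carrying the transplanted tumor received test compound or vehicle. Survival was recorded in each group, and the value is the treated-group measurement divided by that of the vehicle-treated control group.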

The mark [1] stands for this setting: dose: 25.0 mg/kg/injection, schedule: Q01DX009 (ip), vehicle: saline with Tween-80.
Setting [2] is: dose: 50.0 mg/kg/injection, schedule: Q01DX009 (ip), vehicle: saline with Tween-80.
Where [3] appears, read: dose: 100.0 mg/kg/injection, schedule: Q01DX009 (ip), vehicle: saline with Tween-80.
[4] abbreviates: dose: 200.0 mg/kg/injection, schedule: Q01DX009 (ip), vehicle: saline with Tween-80.
Setting [5] is: dose: 60.0 mg/kg/injection, schedule: Q01DX005 (ip), vehicle: saline with Tween-80.
Setting [6] is: dose: 120.0 mg/kg/injection, schedule: Q01DX005 (ip), vehicle: saline with Tween-80.
The mark [7] stands for this setting: dose: 240.0 mg/kg/injection, schedule: Q01DX005 (ip), vehicle: saline with Tween-80.
Setting [8] is: dose: 6.25 mg/kg/injection, schedule: Q01DX009 (ip), vehicle: saline with Tween-80.
Where [9] appears, read: dose: 12.5 mg/kg/injection, schedule: Q01DX009 (ip), vehicle: saline with Tween-80.
The mark [10] stands for this setting: dose: 50.0 mg/kg/injection, schedule: Q01DX005 (ip), vehicle: saline with Tween-80.
Setting [11] is: dose: 100.0 mg/kg/injection, schedule: Q01DX005 (ip), vehicle: saline with Tween-80.
Setting [12] is: dose: 50.0 mg/kg/injection, schedule: Q01DX009 (ip), vehicle: Klucel (hydroxypropylcellulose) (HPC).
The mark [13] stands for this setting: dose: 100.0 mg/kg/injection, schedule: Q01DX009 (ip), vehicle: Klucel (hydroxypropylcellulose) (HPC).
Setting [14] is: dose: 200.0 mg/kg/injection, schedule: Q01DX009 (ip), vehicle: Klucel (hydroxypropylcellulose) (HPC).
Setting [15] is: dose: 200.0 mg/kg/injection, schedule: Q01DX005 (ip), vehicle: saline with Tween-80.

Regarding `Cc1ccc(S(=O)(=O)Nc2cc(C)c3c(c2C)CCN=C3)cc1`, the T/C (dose: 12.5 mg/kg/injection, schedule: Q01DX009 (ip), vehicle: distilled water + Tween-80) is 93 % of control; the T/C (dose: 25.0 mg/kg/injection, schedule: Q01DX009 (ip), vehicle: distilled water + Tween-80) was 91 % of control; the T/C (dose: 50.0 mg/kg/injection, schedule: Q01DX009 (ip), vehicle: distilled water + Tween-80) is 88 % of control; the T/C (dose: 100.0 mg/kg/injection, schedule: Q01DX009 (ip), vehicle: distilled water + Tween-80) is 93 % of control; the T/C (dose: 200.0 mg/kg/injection, schedule: Q01DX009 (ip), vehicle: distilled water + Tween-80) was 91 % of control.
`CC1(C)C=Cc2cc(O)ccc2O1`: the T/C is 99 % of control under setting [1], 90 % of control under setting [2], 88 % of control under setting [3] and 86 % of control under setting [4].
As for `Cc1cccc(C2=NC(=C3CCCCC3)C(=O)O2)c1`, the T/C was 101 % of control under setting [5], 100 % of control under setting [6] and 100 % of control under setting [7].
Turning to `CCN(CC)Cc1cc2[nH]c3c4ccc(Cl)cc4ncc3c2cc1OC`, the T/C is, setting by setting: under setting [8], 101 % of control; under setting [9], 100 % of control; under setting [1], 98 % of control; under setting [10], 112 % of control; under setting [2], 87 % of control and 94 % of control; under setting [11], 102 % of control.
Turning to `Nc1ccc(C(=O)Nc2ccc(NC(=O)c3ccco3)c(O)c2)cc1`, the T/C under setting [5] is 94 % of control, the T/C under setting [6] was 91 % of control and the T/C under setting [7] was 89 % of control.
Turning to `CCN(CC)C(=O)NCCCCCCNC(=O)N(CC)CC`, the T/C by setting is: (dose: 15.0 mg/kg/injection, schedule: Q01DX005 (ip), vehicle: saline with Tween-80) 103 % of control; (dose: 30.0 mg/kg/injection, schedule: Q01DX005 (ip), vehicle: saline with Tween-80) 98 % of control and 104 % of control; under setting [5], 98 % of control and 100 % of control and 94 % of control; under setting [6], 87 % of control.
With `O=C1NC(=O)N2CCCOC2C1c1ccccc1` (stereo not drawn), the T/C is 103 % of control under setting [12], 99 % of control under setting [13] and 99 % of control under setting [14].
As to `O=[N+]([O-])c1ccc(N2c3ccccc3SC2c2ccco2)c([N+](=O)[O-])c1` (stereo not drawn), the T/C reads like this: (dose: 1.5 mg/kg/injection, schedule: Q01DX005 (ip), vehicle: saline with Tween-80) 102 % of control; (dose: 3.0 mg/kg/injection, schedule: Q01DX005 (ip), vehicle: saline with Tween-80) 102 % of control; (dose: 6.0 mg/kg/injection, schedule: Q01DX005 (ip), vehicle: saline with Tween-80) 91 % of control.
Consider `CCCCC/C(=N\Nc1ccc([N+](=O)[O-])cc1[N+](=O)[O-])c1ccccc1`, for which the T/C (dose: 50.0 mg/kg/injection, schedule: Q01DX001 (ip), vehicle: saline with Tween-80) is 105 % of control; the T/C (dose: 100.0 mg/kg/injection, schedule: Q01DX001 (ip), vehicle: saline with Tween-80) is 95 % of control; the T/C (dose: 200.0 mg/kg/injection, schedule: Q01DX001 (ip), vehicle: saline with Tween-80) is 95 % of control.
With `O=C(Nc1ccc(Cl)cc1)SC1=NCC(=O)N1c1ccccc1`, the T/C runs as follows: (dose: 0.78 mg/kg/injection, schedule: Q01DX005 (ip), vehicle: saline with Tween-80) 101 % of control; (dose: 1.56 mg/kg/injection, schedule: Q01DX005 (ip), vehicle: saline with Tween-80) 102 % of control; (dose: 3.13 mg/kg/injection, schedule: Q01DX005 (ip), vehicle: saline with Tween-80) 98 % of control and 94 % of control; (dose: 6.25 mg/kg/injection, schedule: Q01DX005 (ip), vehicle: saline with Tween-80) 94 % of control; (dose: 25.0 mg/kg/injection, schedule: Q01DX005 (ip), vehicle: saline with Tween-80) 89 % of control; under setting [11], 88 % of control. Moreover, the T/C under setting [15] is 92 % of control.
As to `CC1(c2ccccc2)CCC(O)CC1CC(=O)O` (stereo not drawn), the T/C by setting is: under setting [10], 98 % of control; under setting [11], 100 % of control; under setting [15], 101 % of control.
Consider `O=C(NCCCCCCNC(=O)C1CCCN1C(=O)OCc1ccccc1)C1CCCN1C(=O)OCc1ccccc1` (stereo not drawn), for which the T/C (dose: 60.0 mg/kg/injection, schedule: Q01DX005 (ip), vehicle: Klucel (hydroxypropylcellulose) (HPC)) was 100 % of control; the T/C (dose: 120.0 mg/kg/injection, schedule: Q01DX005 (ip), vehicle: Klucel (hydroxypropylcellulose) (HPC)) was 98 % of control; the T/C (dose: 240.0 mg/kg/injection, schedule: Q01DX005 (ip), vehicle: Klucel (hydroxypropylcellulose) (HPC)) was 100 % of control.
With `CC(C)CC(N)C(=O)NC(C(=O)O)c1ccc(O)cc1` (stereo not drawn) (H-Leu-[Hpg]-OH; configuration not given here), the T/C under setting [2] is 103 % of control, the T/C under setting [3] was 101 % of control and the T/C under setting [4] is 102 % of control.
On to `COc1cccc(N=Nc2c(C)nn(C(=S)S)c2C)c1`, for which the T/C runs as follows: under setting [10], 101 % of control; under setting [11], 100 % of control; under setting [15], 94 % of control.
On to `O=C1C(=O)C(Cl)=C(Cl)C(Cl)=C1Cl`, for which the T/C is 100 % of control and 95 % of control under setting [8]; 93 % of control under setting [9]; 100 % of control and 98 % of control under setting [1].
For `CC[C@@]12C[C@H]3CN(CCc4c([nH]c5ccccc45)[C@@](C(=O)OC)(c4cc5c(cc4OC)N(C)[C@H]4[C@@](O)(C(=O)OC)[C@H](OC(C)=O)[C@]6(CC)C=CCN7CC[C@]54[C@@H]76)C3O1)C2` (stereo partly drawn), the T/C is, setting by setting: (dose: 0.5 mg/kg/injection, schedule: Q01DX001 (ip), vehicle: distilled water + Tween-80) 103 % of control; (dose: 0.5 mg/kg/injection, schedule: Q01DX001 (ip), vehicle: water) 98 % of control; (dose: 1.0 mg/kg/injection, schedule: Q01DX001 (ip), vehicle: distilled water + Tween-80) 100 % of control and 101 % of control; (dose: 1.0 mg/kg/injection, schedule: Q01DX001 (ip), vehicle: water) 96 % of control; (dose: 1.0 mg/kg/injection, schedule: Q01DX009 (ip), vehicle: distilled water + alcohol) 176 % of control; (dose: 2.0 mg/kg/injection, schedule: Q01DX001 (ip), vehicle: distilled water + Tween-80) 100 % of control. Further, the T/C is 97 % of control (dose: 2.0 mg/kg/injection, schedule: Q01DX001 (ip), vehicle: water); 176 % of control (dose: 2.0 mg/kg/injection, schedule: Q01DX009 (ip), vehicle: distilled water + alcohol); 100 % of control and 108 % of control (dose: 4.0 mg/kg/injection, schedule: Q01DX001 (ip), vehicle: distilled water + Tween-80); 105 % of control (dose: 4.0 mg/kg/injection, schedule: Q01DX001 (ip), vehicle: water); 168 % of control (dose: 4.0 mg/kg/injection, schedule: Q01DX009 (ip), vehicle: distilled water + alcohol); 100 % of control and 93 % of control (dose: 8.0 mg/kg/injection, schedule: Q01DX001 (ip), vehicle: distilled water + Tween-80). Further, the T/C reads like this: (dose: 8.0 mg/kg/injection, schedule: Q01DX001 (ip), vehicle: water) 108 % of control; (dose: 16.0 mg/kg/injection, schedule: Q01DX001 (ip), vehicle: distilled water + Tween-80) 96 % of control; (dose: 32.0 mg/kg/injection, schedule: Q01DX001 (ip), vehicle: distilled water + Tween-80) 102 % of control.
Consider `CC(=O)OC1CN(c2ccc(Br)cc2)CC(OC(C)=O)CN(c2ccc(Br)cc2)C1` (stereo not drawn), for which the T/C runs as follows: under setting [12], 99 % of control; under setting [13], 100 % of control; under setting [14], 97 % of control.
`O=S(=O)(OC1=CCCCCC1)C(F)(F)F`: the T/C runs as follows: (dose: 50.0 mg/kg/injection, schedule: Q01DX009 (ip), vehicle: olive oil, sesame oil, peanut oil) 106 % of control; (dose: 100.0 mg/kg/injection, schedule: Q01DX009 (ip), vehicle: olive oil, sesame oil, peanut oil) 91 % of control; (dose: 200.0 mg/kg/injection, schedule: Q01DX009 (ip), vehicle: olive oil, sesame oil, peanut oil) 114 % of control.
With `CN1OC(=O)OC(C)(c2ccccc2)C1=O` (stereo not drawn), the T/C by setting is: under setting [10], 98 % of control; under setting [11], 97 % of control; under setting [15], 97 % of control.
Take `CCCCCCCNc1ncnc2[nH]ncc12`: the T/C is 112 % of control under setting [10], 107 % of control under setting [11] and 107 % of control under setting [15].
